From publication PMC12785453, “Oral Fluid Concentrations and Pharmacological Effects of Clephedrone and Methylone in Humans” (International Journal of Molecular Sciences, 2025)
Like-named read-outs stand apart in the source and are kept apart here.

Assays:
[1] = test system: healthy volunteers; assay: Subjective effects, VESSPA-SSE, clephedrone study; assay type: in vivo, humans; conditions: 100 or 150 mg oral, n=8
Excerpt: The study evaluating the acute effects of clephedrone was designed as a non-controlled, prospective, observational, and naturalistic study. The procedures and evaluations included in this study have been described in previous studies evaluating other synthetic cathinones (mephedrone, methylone, alpha-PVP, NEP, HEXEN), phenethylamines (2C-B and 2C-E), or synthetic cannabinoids (JWH-122, JWH-210, UR-144).
This study consisted of one experimental session in which participants (N = 8; 6 women, 2 men) selected their oral dose of clephedrone based on their drug use experience and preferences. According to their dose selection, 3 women and 1 man ingested 100 mg of clephedrone, while the remaining 3 women and 1 man opted for a higher dose of 150 mg. […] Participants were recruited by word of mouth by the harm reduction organization Energy Control in Barcelona (Associació Benestar i Desenvolupament, ABD).
Subjective effects were evaluated with visual analog scales (VAS), the short form of the Addiction Research Center Inventory (ARCI), and the Evaluation of Subjective Effects of Substances with Abuse Potential questionnaire (VESSPA-SSE). In addition, the Sensitivity to Drug Reinforcement Questionnaire (SDRQ) and a pharmacological identification class questionnaire were used in the controlled study administering methylone.
The VESSPA-SSE questionnaire, used to evaluate the subjective effects of stimulant drugs, The questionnaire includes 36-items and consists of six subscales that measure sedation (S), psychosomatic anxiety (ANX), changes in perception (CP), pleasure and sociability (SOC), activity and energy (ACT), and psychotic symptoms (PS).
Participants included in the naturalistic clephedrone study completed VAS at baseline, 0.50, 1, 1.5, 2, 3, 4, and 5 h, and ARCI and VESSPA at baseline, 1, 2, 3, 4, and 5 h after self-administering clephedrone. In the controlled study, VAS was performed at baseline and 0.25, 0.50, 0.75, 1, 1.5, 2, 3, 4, 6, 8, 10, and 24 h, and ARCI and VESSPA at baseline and 1, 2, 3, 4, 6, 8, and 10 h after administering methylone. Participants completed SDRQ and VAS sexual desire and arousal at baseline, 1 and 10 h, and the pharmacological class identification questionnaire at 8 h.
(§1) For statistical analysis, values of physiological (SBP, DBP, HR, and T) and subjective effects (VAS, ARCI, and VESSPA-SSE) were baseline–adjusted. Maximum effects (Emax) and the time needed to reach maximum effects (Tmax) were determined, and the area under the curve up to 5 h (AUC0–5h) for clephedrone and up to 6 h (AUC0–6h) for methylone was calculated using the trapezoidal rule. Emax and AUC values are presented as mean ± standard deviation, whereas Tmax is presented in median (range).
(§2) To find possible significant changes through the time course compared to baseline, a Dunnett multiple comparison test was carried out to compare each time point with baseline in both drug conditions. For clephedrone the comparisons were 0–0.5 h, 0–1 h, 0–1.5 h, 0–2 h, 0–3 h, 0–4 h and 0–5 h, and for methylone this analysis included 0–0.25 h, 0–0.5 h, 0–0.75 h, 0–1 h, 0–1.5 h, 0–2 h, 0–3 h, 0–4 h and 0–6 h. Given their different study designs, no comparative analysis between the time courses of both synthetic cathinones was conducted.

[2] = cited from earlier work
[3] = test system: healthy male participants; assay: Physiological effects (SBP, DBP, HR, T), controlled methylone pilot clinical trial; assay type: in vivo, humans
Procedure: Methylone pharmacology was evaluated in a study designed as a randomized, double-blind, placebo-controlled, crossover clinical trial. Four pilot studies were conducted administering methylone at oral doses of 50 (n = 3), 100 (n = 6), 150 (n = 5), and 200 mg (n = 7). Participants attended 3 experimental sessions separated by a one-week wash-out period and received two doses of methylone (one dose per experimental session) compared to placebo, except in the last pilot study in which participants received one dose of methylone, compared to MDMA and placebo. However, in this manuscript, only the results corresponding to the highest methylone doses (n = 12; 150 and 200 mg; mean dose = 179.2 mg) are presented, to enable comparison with clephedrone self-administration. Participants were recruited by word of mouth in the volunteer database of the clinical pharmacology unit.
Participants of the naturalistic clephedrone study were summoned at 15:00 h at the private club where sessions were carried out. The club remained closed to the public until the end of the session, approximately at 21:00 h. As a naturalistic study, participants were left free to talk, read, play games, or listen to music in the time between study evaluations. To avoid possible influences between participants, they were asked to refrain from talking about the effects of the self-administered substance. The experimental sessions of the controlled pilot trial were carried out at the Clinical Research Unit (UPIC) of the Germans Trias i Pujol hospital, where participants were summoned at 7:45 a.m. after fasting overnight and remained there for approximately 11 h.
Methylone hydrochloride of high purity in powder form was acquired from LGC Standards (Teddington, UK) for the controlled study. The Pharmacy Department of the Hospital Universitari Germans Trias i Pujol was responsible for manufacturing, storing, and dispensing identical and opaque soft gelatin capsules containing 50 mg of methylone or a placebo (maltodextrin). Treatment consisted of 5 capsules that combined methylone and/or a placebo to reach the target dose. Details can be found in the previous article.
In the controlled methylone study, vital signs monitors (Philips Sure Signs VM4 monitors, Philips, Amsterdam, The Netherlands) were used to measure SBP, DBP, HR, and oral temperature at baseline (−30 and −15 min) and 0.25, 0.50, 0.75, 1.5, 2, 3, 4, 6, 8, 10, and 24 h after administration. For these evaluations, participants rested in hospital beds in a position of back elevation. Furthermore, electrocardiograms were constantly monitored throughout the sessions for safety reasons.
as §1, §2

[4] = 150 or 200 mg oral, n=12, listed as methylone
[5] = AUC0–6h, 150 or 200 mg oral, n=12

For `CNC(C)C(=O)c1ccc(Cl)cc1` (stereo not shown) [Clephedrone, 4-chloromethcathinone], the “VESSPA ANX (psychosomatic anxiety) Emax” value [1] was 1.33 ± 0.45 points, the “VESSPA CP (changes in perception) Emax” value [1] was 0.02 ± 0.06 points and the “VESSPA CP (changes in perception) Tmax” value [1] was 0.0 (0.0–1.0) h. The “VESSPA S (sedation) Emax” value [1] was 0.90 ± 0.73 points, the “VESSPA SOC (pleasure and sociability) Emax” value [1] was 2.85 ± 0.47 points and the “VESSPA-ACT (activity and energy) Emax” value [1] was 2.52 ± 0.46 points. For the same molecule, the “VESSPA-PS (psychotic symptoms) Emax” value [1] was 0.38 ± 0.50 points, the “VESSPA ANX (psychosomatic anxiety) AUC0-5/6 h” value ([1]; AUC0–5h) was 3.01 ± 0.95 points·h and the “VESSPA CP (changes in perception) AUC0-5/6 h” value ([1]; AUC0–5h) was 0.06 ± 0.18 points·h. The “VESSPA S (sedation) AUC0-5/6 h” value ([1]; AUC0–5h) was 1.69 ± 1.43 points·h, the “VESSPA SOC (pleasure and sociability) AUC0-5/6 h” value ([1]; AUC0–5h) was 7.74 ± 3.00 points·h and the “VESSPA-ACT (activity and energy) AUC0-5/6 h” value ([1]; AUC0–5h) was 5.93 ± 2.65 points·h. For the same molecule, the “VESSPA-PS (psychotic symptoms) AUC0-5/6 h” value ([1]; AUC0–5h) was 1.15 ± 2.02 points·h, the “Blood concentrations, mean” value ([2]; fatal cases) was 0.547 µg/mL and the “Blood concentrations, mean” value ([2]; traffic controls, non-fatal cases (n = 9)) was 0.0211 µg/mL.
With `CNC(C)C(=O)c1ccc2c(c1)OCO2` (stereo not shown) [Methylone, 3,4-methylenedioxy-N-methylcathinone] the “Onset of cardiovascular effects after administration” value ([3]; 150 or 200 mg oral) was 0.5 h, the “SBP effects returned to baseline” value ([3]; 150 or 200 mg oral) was 3 h and the “DBP Emax” value ([3]; 150 or 200 mg oral, n=12) was 3.75 ± 11.52 mmHg. For the same molecule, the “HR Emax” value ([3]; 150 or 200 mg oral, n=12) was 28.75 ± 16.09 bpm, the “SBP Emax” value ([3]; 150 or 200 mg oral, n=12) was 27.04 ± 10.72 mmHg and the “DBP Emax” value [3, 4] was 3.75 mmHg. The “HR Emax” value [3, 4] was 28.75 bpm, the “SBP Emax” value [3, 4] was 27.04 mmHg and the “HR AUC0-5/6 h” value [3, 5] was 97.07 ± 69.24 bpm·h. The “SBP AUC0-5/6 h” value [3, 5] was 38.70 ± 26.84 mmHg·h, the “T AUC0-5/6 h” value ([3]; AUC0–6h, oral temperature, 150 or 200 mg oral, n=12) was 0.88 ± 1.34 °C·h and the “Tolerability, serious adverse events” value ([3]; all administered doses (150 or 200 mg oral)) was “well tolerated”. For the same molecule, the “T Emax” value ([3]; oral temperature, 150 or 200 mg oral, n=12) was 0.23 ± 0.34 °C.
